# Measurements as given in US7786141B2 (Vertex Pharmaceuticals Incorporated, priority 2004, dated 2010).
# Where two headings read alike, the source gives them in different places.
# Columns and labels:
# [1] = molecular target: T1, M4 muscarinic receptor (Homo sapiens, UniProt P08173); assay: Functional mobilization of intracellular calcium (FLIPR) in M4-CHO cells; format: cell-based
# T1 construct: expressed in transfected cells; host or cells: CHO (M4-CHO)
# T1 sequence (P08173 1-479): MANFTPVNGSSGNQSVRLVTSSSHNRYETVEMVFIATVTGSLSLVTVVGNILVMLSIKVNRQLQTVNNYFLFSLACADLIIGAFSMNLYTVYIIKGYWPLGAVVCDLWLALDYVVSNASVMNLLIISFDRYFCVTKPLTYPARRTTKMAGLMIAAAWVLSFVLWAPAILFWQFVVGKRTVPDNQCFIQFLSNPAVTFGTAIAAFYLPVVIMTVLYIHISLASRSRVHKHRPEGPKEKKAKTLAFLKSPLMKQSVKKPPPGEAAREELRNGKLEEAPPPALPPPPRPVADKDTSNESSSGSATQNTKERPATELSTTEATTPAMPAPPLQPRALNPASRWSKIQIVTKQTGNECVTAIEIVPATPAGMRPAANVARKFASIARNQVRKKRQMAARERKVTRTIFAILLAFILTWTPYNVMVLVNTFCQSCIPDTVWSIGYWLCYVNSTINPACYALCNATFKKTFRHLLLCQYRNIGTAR
# In short: (§1)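 Intracellular calcium rise is measured by FLIPR fluorescence over 60 sec in CHO cells carrying human M1 or M4 receptors. Compounds are tested alone as agonists, or pre-incubated 15 min (or co-applied) ahead of carbachol at its EC80 to detect inhibition.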
# [2] = molecular target: T2, M1 muscarinic receptor (Homo sapiens, UniProt P11229); assay: Functional mobilization of intracellular calcium (FLIPR) in M1-CHO cells; format: cell-based
# T2 construct: expressed in transfected cells; host or cells: CHO (M1-CHO)
# T2 sequence (P11229 1-460): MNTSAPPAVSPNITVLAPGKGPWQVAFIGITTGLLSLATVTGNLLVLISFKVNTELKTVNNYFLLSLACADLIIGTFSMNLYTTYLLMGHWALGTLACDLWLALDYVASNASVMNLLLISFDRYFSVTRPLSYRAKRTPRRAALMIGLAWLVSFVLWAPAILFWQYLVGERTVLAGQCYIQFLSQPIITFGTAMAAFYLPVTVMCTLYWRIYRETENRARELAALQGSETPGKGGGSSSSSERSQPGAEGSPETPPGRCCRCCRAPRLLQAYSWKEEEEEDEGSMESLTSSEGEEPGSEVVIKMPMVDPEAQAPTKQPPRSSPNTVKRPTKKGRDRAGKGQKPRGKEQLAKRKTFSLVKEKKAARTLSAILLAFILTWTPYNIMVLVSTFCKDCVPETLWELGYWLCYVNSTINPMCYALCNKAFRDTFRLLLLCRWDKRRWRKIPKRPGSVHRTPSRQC
# In short: as §1
# [3] = Table 4, 100% efficacy is the maximum response obtained with the Carbachol control
# [4] = Table 4, modulating M4 receptor
# [5] = Table 4, modulating M1 receptor
# [6] = 100% efficacy is the maximum response obtained with the Carbachol control, Table 5
# [7] = M4 receptor, calcium mobilization
# [8] = M4 receptor, calcium mobilization, read-out: M4 Efficacy
# [9] = M1 receptor, calcium mobilization
# [10] = M1 receptor, calcium mobilization, read-out: M1 Efficacy
# [11] = Table 4, M4 receptor, calcium mobilization (FLIPR)
# [12] = Table 4, M1 receptor, calcium mobilization (FLIPR)
SMILES,"Emax [1, 3]","M4 Activity [1, 4]","Emax [2, 3]","M1 Activity [2, 5]",other results
CCOC(=O)N1CCC(N2CCC3(CC2)CN(C(C)=O)c2cccc(C)c23)CC1 [compound 450],< 25%,x (activity was measured to be greater than 5.0 μM),25 to 100%,xxx (activity was measured to be less than 2.0 μM),
CN(C)C(=O)N[C@H]1CCC2(CCN(C3CC4CCC(C4)C3)CC2)c2ccccc21 (stereo partly drawn) [compound 468],25 to 100%,xxx (activity was measured to be less than 2.0 μM),25 to 100%,xx (activity was measured to be between 2.0 μM and 5.0 μM),
CN(C)C(=O)N1CC2(CCN(C3CCN(c4cnccn4)CC3)CC2)c2cc(F)ccc21 [compound 1031],,,,,"Emax [1, 6]: 25 to 100%; EC50 ([1]; CHO cells expressing M4, calcium mobilization, Table 5): < 2000 nM; Emax [2, 6]: 25 to 100%; EC50 ([2]; CHO cells expressing M1, calcium mobilization, Table 5): < 2000 nM"
CCOC(=O)N1C2CCC1CC(CN1CCC3(CC1)CNc1ccc(F)cc13)C2 (stereo not drawn) [compound 368],,,,,"M4 Activity [1, 7]: xx (activity was measured to be between 0.1 μM and 1.0 μM); Emax [1, 8]: < 65%; M1 Activity [2, 9]: xxx (activity was measured to be less than 0.1 μM); Emax [2, 10]: < 65%"
CC#CC(C)OC(=O)N1CC[C@H](CN2CCC3(CC2)CN(C(=O)N(C)C)c2ccc(F)cc23)C1 (stereo partly drawn) [compound 485],< 25%,xxx (activity was measured to be less than 2.0 μM),25 to 100%,xx (activity was measured to be between 2.0 μM and 5.0 μM),
Cc1ccc2c(c1)C1(CCN(C3CC4CCC3C4)CC1)CN2C(=O)c1cc(C)on1 (stereo not drawn) [compound 208],,,,,"M4 Activity [1, 7]: x (activity was measured to be greater than 1.0 μM); Emax [1, 8]: < 65%; M1 Activity [2, 9]: xx (activity was measured to be between 0.1 μM and 1.0 μM); Emax [2, 10]: < 65%"
CCOC(=O)N1CCC(N2CCC3(CC2)CN(C(C)=O)c2c(C)cc(C)cc23)CC1 [compound 610],25 to 100%,xxx (activity was measured to be less than 2.0 μM),25 to 100%,xxx (activity was measured to be less than 2.0 μM),
CN(C)C(=O)N1CC2(CCN(C3CCN(C(=O)OCC(F)(F)F)CC3)CC2)c2cc(F)ccc21 [compound 938],25 to 100%,,25 to 100%,,"M4 Activity [1, 11]: xxx (activity was measured to be less than 2.0 μM); M1 Activity [2, 12]: xxx (activity was measured to be less than 2.0 μM)"
CCOC(=O)N1CCC(N2CCC3(CC2)CN(C(C)=O)c2c(CC)cccc23)CC1 [compound 859],25 to 100%,,25 to 100%,,"M4 Activity [1, 11]: x (activity was measured to be greater than 5.0 μM); M1 Activity [2, 12]: x (activity was measured to be greater than 5.0 μM)"
CC(=O)N1CC2(CCN(C3CCN(C(=O)O[C@H]4CCOC4)CC3)CC2)c2ccccc21 [compound 824],< 25%,,25 to 100%,,"M4 Activity [1, 11]: x (activity was measured to be greater than 5.0 μM); M1 Activity [2, 12]: x (activity was measured to be greater than 5.0 μM)"
CCOC(=O)N1CCC(N2CCC3(CC[C@H](NC(C)=O)c4ccccc43)CC2)CC1 [compound 537],25 to 100%,xxx (activity was measured to be less than 2.0 μM),25 to 100%,xxx (activity was measured to be less than 2.0 μM),
CC(=O)N[C@H]1CC2(CCN(CC(=O)N3CCOCC3)CC2)c2ccccc21 [compound 480],< 25%,x (activity was measured to be greater than 5.0 μM),< 25%,x (activity was measured to be greater than 5.0 μM),
CCOC(=O)N1C2CCC1CC(N1CCC3(CC1)CC(=O)c1ccc(Cl)cc13)C2 (stereo not drawn) [compound 836],25 to 100%,,25 to 100%,,"M4 Activity [1, 11]: xxx (activity was measured to be less than 2.0 μM); M1 Activity [2, 12]: xxx (activity was measured to be less than 2.0 μM)"
CCOC(=O)N1CCC(N2CCC3(CC2)CN(C(C)=O)c2ccc(-c4ccncc4)cc23)CC1 [compound 105],,,,,"M4 Activity [1, 7]: x (activity was measured to be greater than 1.0 μM); Emax [1, 8]: < 65%; M1 Activity [2, 9]: xx (activity was measured to be between 0.1 μM and 1.0 μM); Emax [2, 10]: < 65%"
CN(C)C(=O)N1CC2(CCN(C3CCN(C(=O)c4ccco4)CC3)CC2)c2cc(F)ccc21 [compound 435],25 to 100%,xxx (activity was measured to be less than 2.0 μM),25 to 100%,xxx (activity was measured to be less than 2.0 μM),
COCCOC(=O)N1CCC(N2CCC3(CC2)CN(C(C)=O)c2ccccc23)CC1 [compound 539],25 to 100%,xx (activity was measured to be between 2.0 μM and 5.0 μM),25 to 100%,xx (activity was measured to be between 2.0 μM and 5.0 μM),
O=C1CCCN1[C@H]1CCC2(CCN(CC3CCCCC3)CC2)c2ccccc21 [compound 647],25 to 100%,xxx (activity was measured to be less than 2.0 μM),25 to 100%,xxx (activity was measured to be less than 2.0 μM),
Cc1ccc2c(c1)C1(CCN(C3CC4CCC3C4)CC1)CN2S(=O)(=O)c1ccccc1 (stereo not drawn) [compound 354],,,,,"M4 Activity [1, 7]: x (activity was measured to be greater than 1.0 μM); Emax [1, 8]: 65 to 85%; M1 Activity [2, 9]: x (activity was measured to be greater than 1.0 μM); Emax [2, 10]: 65 to 85%"
CN(C)C(=O)N1CC2(CCN(C3CCN(C(=O)c4cccc(F)c4)CC3)CC2)c2cc(F)ccc21 [compound 972],< 25%,,25 to 100%,,"M4 Activity [1, 11]: x (activity was measured to be greater than 5.0 μM); M1 Activity [2, 12]: xx (activity was measured to be between 2.0 μM and 5.0 μM)"
CCOC(=O)N(C)[C@H]1CC2(CCN(C[C@H]3C[C@H]4CC[C@H]3C4)CC2)c2ccccc21 [compound 347],,,,,"M4 Activity [1, 7]: xx (activity was measured to be between 0.1 μM and 1.0 μM); Emax [1, 8]: > 85%; M1 Activity [2, 9]: xxx (activity was measured to be less than 0.1 μM); Emax [2, 10]: 65 to 85%"
O=C(O[C@H]1CCOC1)N1C2CCC1CC(N1CCC3(CCc4ccccc43)CC1)C2 (stereo partly drawn) [compound 355],,,,,"M4 Activity [1, 7]: xx (activity was measured to be between 0.1 μM and 1.0 μM); Emax [1, 8]: 65 to 85%; M1 Activity [2, 9]: xx (activity was measured to be between 0.1 μM and 1.0 μM); Emax [2, 10]: 65 to 85%"
CCOC(=O)N1C2CCC1CC(N1CCC3(CC1)CNc1ccc(C)cc13)C2 (stereo not drawn) [compound 109],,,,,"M4 Activity [1, 7]: xx (activity was measured to be between 0.1 μM and 1.0 μM); Emax [1, 8]: < 65%; M1 Activity [2, 9]: xxx (activity was measured to be less than 0.1 μM); Emax [2, 10]: 65 to 85%"
CC(=O)NC1CCC2(CCN(CCC3CCCN(C(=O)N(C)C)C3)CC2)c2ccccc21 (stereo not drawn) [compound 888],< 25%,,25 to 100%,,"M4 Activity [1, 11]: x (activity was measured to be greater than 5.0 μM); M1 Activity [2, 12]: xxx (activity was measured to be less than 2.0 μM)"
CC(=O)NC1CCC2(CCN(CC3CCOCC3)CC2)c2ccccc21 (stereo not drawn) [compound 616],25 to 100%,x (activity was measured to be greater than 5.0 μM),> 100%,xxx (activity was measured to be less than 2.0 μM),
CCCC#CCOC(=O)N1CC[C@@H](CN2CCC3(CC2)CN(C(=O)N(C)C)c2ccc(F)cc23)C1 [compound 527],25 to 100%,xxx (activity was measured to be less than 2.0 μM),25 to 100%,xxx (activity was measured to be less than 2.0 μM),
COC(=O)N1CCCC(N2CCC3(CC2)CN(C(C)=O)c2ccc(F)cc23)CC1 (stereo not drawn) [compound 132],,,,,"M4 Activity [1, 7]: xxx (activity was measured to be less than 0.1 μM); Emax [1, 8]: > 85%; M1 Activity [2, 9]: xxx (activity was measured to be less than 0.1 μM); Emax [2, 10]: > 85%"
O=C(N[C@H]1CCC2(CCN(C3CCCCCC3)CC2)c2ccccc21)C1CC1 [compound 663],25 to 100%,xxx (activity was measured to be less than 2.0 μM),25 to 100%,xxx (activity was measured to be less than 2.0 μM),
